The structures appear in SMILES notation. Structures can show the parent of a compound that is named as a salt.

Compound `COCCNCCCc1ccc(Cl)c(C(=O)NCC23CC4CC(CC(C4)C2)C3)c1` (as salt: hydrochloride) [Example 22, 2-Chloro-5-[3-[(2-methoxyethyl)amino]propyl]-N-(tricyclo[3.3.1.1^3,7]dec-1-ylmethyl)-benzamide, hydrochloride salt] yielded a melting point of 245 to 248 °C.

One may read the melting point as the temperature of the solid-liquid transition.

The values above are taken from patent US7297818B2, “Adamantane derivatives” (AstraZeneca AB, priority 1999, dated 2007).
